Where “and” joins values, the source holds several entries; their conditions need not be identical. Identical values can stand only once.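 Assay format: 96-well plates, 48-hour exposure. The concentration for 50% growth inhibition is given as GI50. Definition used: TGI = concentration required for complete inhibition of growth.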

GI50 and TGI data for ten compounds are collected here from PubChem BioAssay (NCI).

Test systems include A498 renal; SNB-75 CNS; OVCAR-8 ovarian; SK-MEL-5 melanoma; SR leukemia; SK-MEL-28 melanoma; M14 melanoma; NCI/ADR-RES ovarian; LXFL 529 NSCLC; SNB-78 CNS.
What all share (assay): inhibition of tumour cell growth, NCI panel, 48 h

With `Nc1nc(N)c2c(n1)NC(c1ccc(Cl)cc1)C1CCc3ccccc3C1=N2` (stereo unspecified), the GI50 is 5.34 µM with A498 renal; 13 µM with SNB-75 CNS; 10.8 µM in the assay with OVCAR-8 ovarian; 0.497 µM in the assay with SK-MEL-5 melanoma; 1.73 µM in the assay with SR leukemia; 13.9 µM in the assay with SK-MEL-28 melanoma. For the same compound, the GI50 is 10.4 µM in the assay with M14 melanoma and 5.53 µM with NCI/ADR-RES ovarian. Further, the TGI with A498 renal came out at 19 µM; in the assay with SNB-75 CNS, 26.8 µM; with OVCAR-8 ovarian it was 43.1 µM; in the assay with SK-MEL-5 melanoma it was 2.02 µM; in the assay with SR leukemia, 5.01 µM; in the assay on SK-MEL-28 melanoma, 27.4 µM. In addition, the TGI was 22.1 µM in the assay on M14 melanoma and 18.2 µM in the assay with NCI/ADR-RES ovarian.
On to `CN1c2cccc[c]2[Sn]([CH3])([CH3])[c]2ccccc21`, for which the GI50 in the assay on A498 renal is 0.101 µM; in the assay with SNB-75 CNS, under 0.0142 µM; in the assay with OVCAR-8 ovarian, under 0.0134 µM; in the assay with SK-MEL-5 melanoma, under 0.01 µM; in the assay on SR leukemia, under 0.01 µM; in the assay with SK-MEL-28 melanoma, 0.113 µM. Besides, the GI50 in the assay on M14 melanoma is under 0.0148 µM; with NCI/ADR-RES ovarian, 0.0132 µM. Besides, the TGI was 0.255 µM in the assay on A498 renal; 0.192 µM in the assay with SNB-75 CNS; under 0.023 µM in the assay on OVCAR-8 ovarian; 0.023 µM in the assay with SK-MEL-5 melanoma; 0.0387 µM in the assay on SR leukemia; 0.303 µM in the assay with SK-MEL-28 melanoma. Moreover, the results for the TGI with M14 melanoma and with NCI/ADR-RES ovarian were 0.0305 µM and 0.0491 µM, respectively.
With `COc1cc(N2CCN(C(C)C)CC2)ccc1Nc1nc(Nc2ccc(F)cc2C(N)=O)c2cc[nH]c2n1`, the GI50 in the assay on A498 renal was 0.165 µM; in the assay with SNB-75 CNS, 3.04 µM; in the assay on OVCAR-8 ovarian it was 0.363 µM; with SK-MEL-5 melanoma it was 0.747 µM; in the assay with SR leukemia, 0.0145 µM; in the assay with SK-MEL-28 melanoma, 3.69 µM. Besides, the GI50 in the assay with M14 melanoma is 0.18 µM; in the assay with NCI/ADR-RES ovarian, 3.76 µM. Further, the TGI in the assay with A498 renal is 3.65 µM; in the assay with SNB-75 CNS it was 6.32 µM; with OVCAR-8 ovarian, 5.43 µM; with SK-MEL-5 melanoma, 5.28 µM; with SR leukemia it was 10.1 µM; in the assay with SK-MEL-28 melanoma, 7.59 µM. In addition, the TGI in the assay on M14 melanoma came out at 4.07 µM; in the assay on NCI/ADR-RES ovarian it was 11.6 µM.
Consider `O=C(Nc1c(Cl)cccc1Cl)Oc1cccc2cccnc12`, for which the GI50 was 7.99 µM in the assay on A498 renal; 13.5 µM with SNB-75 CNS; 3.08 µM in the assay with OVCAR-8 ovarian; 3.39 µM with SK-MEL-5 melanoma; 3.59 µM in the assay with SR leukemia; 7.28 µM in the assay with SK-MEL-28 melanoma. The GI50 in the assay with M14 melanoma was 4.03 µM; with NCI/ADR-RES ovarian, 2.73 µM. Also, the TGI with A498 renal is 48 µM; in the assay on SNB-75 CNS, 53.6 µM; in the assay with OVCAR-8 ovarian, 50 µM; in the assay with SK-MEL-5 melanoma, 12.3 µM; with SR leukemia, 30.4 µM; in the assay on SK-MEL-28 melanoma, 75.2 µM. For the same compound, the TGI in the assay with M14 melanoma worked out at 20.2 µM; in the assay with NCI/ADR-RES ovarian, 27.9 µM.
As to `Cn1cc(-c2[nH]c3cc(NC(=O)[C@H](N)C4CCCCC4)cc4c3c2C=NNC4=O)cn1`, the GI50 was 0.0542 µM and 0.0975 µM in the assay on A498 renal; 0.339 µM and 0.311 µM in the assay with SNB-75 CNS; 0.264 µM and 0.351 µM in the assay on OVCAR-8 ovarian; 0.696 µM and 0.55 µM with SK-MEL-5 melanoma; 0.0566 µM and 0.12 µM in the assay on SR leukemia; 7.99 µM in the assay on SK-MEL-28 melanoma. For the same compound, the GI50 with M14 melanoma is 0.163 µM and 0.234 µM; with NCI/ADR-RES ovarian, 9.8 µM. For the same compound, the TGI in the assay on A498 renal is 0.352 µM and 0.579 µM; in the assay with SNB-75 CNS it was 1.88 µM and 1.84 µM; with OVCAR-8 ovarian, 4.08 µM and > 10 µM; with SK-MEL-5 melanoma, 13.1 µM and > 10 µM; in the assay with SR leukemia, 0.622 µM and 1.1 µM; in the assay on SK-MEL-28 melanoma, 21.9 µM and > 10 µM. The TGI is 0.493 µM and > 4.31 µM in the assay on M14 melanoma; over 74.4 µM with NCI/ADR-RES ovarian.
For `CC1O[C@@H]2CCCCC(=O)[C@]2(C)[C@H]1C` (stereo partly specified), the TGI in the assay on SNB-75 CNS, in the assay on OVCAR-8 ovarian, in the assay with SK-MEL-5 melanoma, with LXFL 529 NSCLC, in the assay with SNB-78 CNS and in the assay with SK-MEL-28 melanoma was over 100 µM in each case. Further, the TGI with M14 melanoma is over 100 µM.
In the case of `C=C1C(=O)O[C@H]2[C@H]1CC/C(COC(=O)NCCc1ccc(Br)cc1)=C\CC[C@@]1(C)O[C@@H]21`, the GI50 is 2.07 µM in the assay on A498 renal; 1.2 µM with SNB-75 CNS; 1.49 µM in the assay on OVCAR-8 ovarian; 1.71 µM in the assay on SK-MEL-5 melanoma; 0.43 µM in the assay with SR leukemia; 1.47 µM with SK-MEL-28 melanoma. Moreover, the figures for the GI50 in the assay on M14 melanoma and in the assay with NCI/ADR-RES ovarian were 1.26 µM and 2.26 µM, respectively. Further, the TGI in the assay on A498 renal is 4.21 µM; with SNB-75 CNS, 2.45 µM; in the assay with OVCAR-8 ovarian it was 3.69 µM; with SK-MEL-5 melanoma, 3.22 µM; in the assay on SR leukemia, 2.91 µM; in the assay on SK-MEL-28 melanoma, 3.12 µM. Also, the TGI in the assay on M14 melanoma was determined as 2.73 µM; with NCI/ADR-RES ovarian, 6.74 µM.
Consider `Clc1ccc(Nc2nnc(COc3ccccc3)c3ccccc23)cc1`, for which the GI50 in the assay with A498 renal is 0.686 µM; in the assay on SNB-75 CNS, 0.498 µM; in the assay on OVCAR-8 ovarian, 3.49 µM; in the assay on SK-MEL-5 melanoma it was 1.08 µM; with SR leukemia, 1.23 µM; in the assay with SK-MEL-28 melanoma it was 2.84 µM. In addition, the GI50 in the assay on M14 melanoma was 0.918 µM; in the assay with NCI/ADR-RES ovarian it was 2.62 µM. Besides, the TGI in the assay with A498 renal was 3.64 µM; in the assay with SNB-75 CNS, 6.65 µM; in the assay with OVCAR-8 ovarian it was 15 µM; with SK-MEL-5 melanoma, 4.56 µM; with SR leukemia, 11.2 µM; with SK-MEL-28 melanoma, 7.23 µM. The TGI amounted to 5.03 µM in the assay on M14 melanoma and 16.6 µM with NCI/ADR-RES ovarian.
For the compound `CC1(/C=C/c2ccc(-c3ccccc3)cc2)CCn2cnc3ncnc(c32)N1O` (stereo unspecified), the GI50 with A498 renal was 0.0387 µM; in the assay with SNB-75 CNS it was 0.387 µM; with OVCAR-8 ovarian it was 0.419 µM; in the assay with SK-MEL-5 melanoma, 0.324 µM; in the assay on SR leukemia it was 0.31 µM; in the assay on SK-MEL-28 melanoma, 0.656 µM. Moreover, the GI50 is 0.265 µM in the assay on M14 melanoma and 0.348 µM in the assay on NCI/ADR-RES ovarian. Also, the TGI in the assay on A498 renal was 3.99 µM; in the assay with SNB-75 CNS, 14.5 µM; in the assay on OVCAR-8 ovarian, over 55.1 µM; in the assay on SK-MEL-5 melanoma, 2.75 µM; in the assay with SR leukemia it was over 100 µM; with SK-MEL-28 melanoma it was 20 µM. In addition, the TGI with M14 melanoma turned out to be 2.49 µM; in the assay on NCI/ADR-RES ovarian, 28.7 µM.
Consider `Nc1cc2c3ccccc3ccc2c2ccccc12`, for which the GI50 is over 100 µM in the assay with A498 renal; over 30.5 µM in the assay with SNB-75 CNS; over 44.6 µM in the assay on OVCAR-8 ovarian; 16.7 µM with SK-MEL-5 melanoma; over 100 µM in the assay on SR leukemia; over 100 µM with SK-MEL-28 melanoma. Further, the GI50 is over 100 µM in the assay with M14 melanoma and over 93.7 µM with NCI/ADR-RES ovarian. For the same compound, the TGI with A498 renal, with SNB-75 CNS, with OVCAR-8 ovarian, in the assay on SK-MEL-5 melanoma, with SR leukemia and with SK-MEL-28 melanoma was over 100 µM throughout. Besides, the TGI with M14 melanoma and with NCI/ADR-RES ovarian was over 100 µM throughout.
